Source: patent US20250353820A1, “ANTIVIRAL PYRAZOLOPYRIDINONE COMPOUNDS” (Novartis AG, priority 2019, published 2025)
Structures can show the parent of a compound that is named as a salt.

Molecular target: human HSV DNA polymerase UL30 (Human herpesvirus 1 (strain 17) (HHV-1) (Human herpes simplex virus 1), UniProt P04293)
Assay: biochemical
Details: 625 pM HSV polymerase, 20 minutes at room temperature; read-out: HSV-polymerase Biochemical IC50

SMILES	IC50 [nM]
Cc1cc(NS(=O)(=O)C2(CN3CCc4c(C(=O)NCc5ccc(Cl)cc5)nn(C)c4C3=O)CC2)no1 [Example 166]	12
Cn1nc(C(=O)NCc2ccc(C#N)cc2)c2c1C(=O)N(CC1(S(=O)(=O)Nc3cc(C4CC4)on3)CC1)CC2 [Example 167]	104
Cn1nc(C(=O)NCc2ccc(C#N)cc2)c2c1C(=O)N(CC1(S(=O)(=O)C3CCOCC3)CC1)CC2 [Example 169]	238
Cn1nc(C(=O)NCc2ccc(C#N)cc2)c2c1C(=O)N(CC1(S(=O)(=O)C3(C)COC3)CC1)CC2 [Example 172, N-(4-Cyanobenzyl)-1-methyl-6-((1-((3-methyloxetan-3-yl)sulfonyl)cyclopropyl)methyl)-7-oxo-4,5,6,7-tetrahydro-1H-pyrazolo[3,4-c]pyridine-3-carboxamide]	63
Cn1nc(C(=O)NCc2ccc(C#N)cc2)c2c1C(=O)N(CC1(S(=O)(=O)C3(CO)COC3)CC1)CC2 [Example 173, N-(4-Cyanobenzyl)-6-((1-((3-(hydroxymethyl)oxetan-3-yl)sulfonyl)cyclopropyl)methyl)-1-methyl-7-oxo-4,5,6,7-tetrahydro-1H-pyrazolo[3,4-c]pyridine-3-carboxamide]	62
Cn1nc(C(=O)NCc2ccc(C#N)cc2)c2c1C(=O)N(CC1(S(=O)(=O)C3(CN)COC3)CC1)CC2 [Example 174, 6-((1-((3-(Aminomethyl)oxetan-3-yl)sulfonyl)cyclopropyl)methyl)-N-(4-cyanobenzyl)-1-methyl-7-oxo-4,5,6,7-tetrahydro-1H-pyrazolo[3,4-c]pyridine-3-carboxamide]	92
Cn1nc(C(=O)NCc2ccc(Cl)cc2)c2c1C(=O)N(CC1(S(=O)(=O)C(C)(CO)CO)CC1)CC2 [Example 175, N-(4-chlorobenzyl)-6-((1-((1,3-dihydroxy-2-methylpropan-2-yl)sulfonyl)cyclopropyl)methyl)-1-methyl-7-oxo-4,5,6,7-tetrahydro-1H-pyrazolo[3,4-c]pyridine-3-carboxamide]	27
COCC(C)(COC)S(=O)(=O)C1(CN2CCc3c(C(=O)NCc4ccc(C#N)cc4)nn(C)c3C2=O)CC1 [Example 179, N-(4-Cyanobenzyl)-6-((1-((1,3-dimethoxy-2-methylpropan-2-yl)sulfonyl)cyclopropyl)methyl)-1-methyl-7-oxo-4,5,6,7-tetrahydro-1H-pyrazolo[3,4-c]pyridine-3-carboxamide]	61
Cn1nc(C(=O)NCc2ccc(C#N)cc2)c2c1C(=O)N(CC1(S(=O)(=O)C(C)(CN)CO)CC1)CC2 (centres unmarked) [Example 183, 6-((1-((1-Amino-3-hydroxy-2-methylpropan-2-yl)sulfonyl)cyclopropyl)methyl)-N-(4-cyanobenzyl)-1-methyl-7-oxo-4,5,6,7-tetrahydro-1H-pyrazolo[3,4-c]pyridine-3-carboxamide]	65
Cn1nc(C(=O)NCc2ccc(Cl)cc2)c2c1C(=O)N(CC1(S(=O)(=O)C(C)(C)[C@@H](O)CO)CC1)CC2 [Example 190, (S)—N-(4-Chlorobenzyl)-6-((1-((3,4-dihydroxy-2-methylbutan-2-yl)sulfonyl)cyclopropyl)methyl)-1-methyl-7-oxo-4,5,6,7-tetrahydro-1H-pyrazolo[3,4-c]pyridine-3-carboxamide]	20
Cn1nc(C(=O)NCc2ccc(Cl)cc2)c2c1C(=O)N(CC1(S(=O)(=O)C(C)(C)[C@H](O)CO)CC1)CC2 [Example 191, (R)—N-(4-Chlorobenzyl)-6-((1-((3,4-dihydroxy-2-methylbutan-2-yl)sulfonyl)cyclopropyl)methyl)-1-methyl-7-oxo-4,5,6,7-tetrahydro-1H-pyrazolo[3,4-c]pyridine-3-carboxamide]	11
Cn1nc(C(=O)NCc2ccc(C#N)cc2)c2c1C(=O)N(CC1(S(=O)(=O)C(C)(C)[C@@H](O)CO)CC1)CC2 [Example 192, (S)—N-(4-cyanobenzyl)-6-((1-((3,4-dihydroxy-2-methylbutan-2-yl)sulfonyl)cyclopropyl)methyl)-1-methyl-7-oxo-4,5,6,7-tetrahydro-1H-pyrazolo[3,4-c]pyridine-3-carboxamide]	30
Cn1nc(C(=O)NCc2ccc(C#N)cc2)c2c1C(=O)N(CC1(S(=O)(=O)C(C)(C)[C@H](O)CN)CC1)CC2 [Example 198, (R)-6-((1-((4-amino-3-hydroxy-2-methylbutan-2-yl)sulfonyl)cyclopropyl)methyl)-N-(4-cyanobenzyl)-1-methyl-7-oxo-4,5,6,7-tetrahydro-1H-pyrazolo[3,4-c]pyridine-3-carboxamide]	23
Cn1nc(C(=O)NCc2ccc(C#N)cc2)c2c1C(=O)N(CC1(S(=O)(=O)C3(C(O)CN)CC3)CC1)CC2 (centres unmarked) [Example 208]	22
Cn1nc(C(=O)NCc2ccc(Cl)cc2)c2c1C(=O)N(CC1(S(=O)(=O)C3(C(O)CN)CC3)CC1)CC2 (centres unmarked) [Example 209]	16
Cn1nc(C(=O)NCc2ccc(C#N)cc2)c2c1C(=O)N(CC1(S(=O)(=O)C(C)(C)[C@H](N)CO)CC1)CC2 [Example 213, (R)-6-((1-((3-amino-4-hydroxy-2-methylbutan-2-yl)sulfonyl)cyclopropyl)methyl)-N-(4-cyanobenzyl)-1-methyl-7-oxo-4,5,6,7-tetrahydro-1H-pyrazolo[3,4-c]pyridine-3-carboxamide]	48
Cn1nc(C(=O)NCc2ccc(Cl)cc2)c2c1C(=O)N(CC1(S(=O)(=O)C(C)(C)[C@H](N)CO)CC1)CC2 [Example 214, (R)-6-((1-((3-Amino-4-hydroxy-2-methylbutan-2-yl)sulfonyl)cyclopropyl)methyl)-N-(4-chlorobenzyl)-1-methyl-7-oxo-4,5,6,7-tetrahydro-1H-pyrazolo[3,4-c]pyridine-3-carboxamide hydrochloride]	32
N#Cc1ccc(CNC(=O)c2nn(CCO)c3c2CCN(CC2(S(=O)(=O)C4CC4)CC2)C3=O)cc1 [Example 216, N-(4-Cyanobenzyl)-6-((1-(cyclopropylsulfonyl)cyclopropyl)methyl)-1-(2-hydroxyethyl)-7-oxo-4,5,6,7-tetrahydro-1H-pyrazolo[3,4-c]pyridine-3-carboxamide]	69

SMILES	IC50 [nM]
CC1(S(=O)(=O)C2(CN3CCc4c(C(=O)NCc5ccc(C#N)cc5)nn(CCO)c4C3=O)CC2)CC1 [Example 217]	26
O=C(NCc1ccc(Cl)cc1)c1nn(CCO)c2c1CCN(CC1(S(=O)(=O)C3CC3)CC1)C2=O [Example 218]	50
CS(=O)(=O)C1(CN2CCc3c(C(=O)NCc4ccc(Cl)cc4)nn(CCO)c3C2=O)CC1 [Example 219]	401
CC(C)(CO)S(=O)(=O)C1(CN2CCc3c(C(=O)NCc4ccc(C#N)cc4)nn(CCO)c3C2=O)CC1 [Example 220]	23
CC(C)(CO)S(=O)(=O)C1(CN2CCc3c(C(=O)NCc4ccc(Cl)cc4)nn(CCO)c3C2=O)CC1 [Example 221]	13
CC1(S(=O)(=O)C2(CN3CCc4c(C(=O)NCc5ccc(Cl)cc5)nn(CCOCCO)c4C3=O)CC2)CC1 [Example 222, N-(4-Chlorobenzyl)-1-(2-(2-hydroxyethoxy)ethyl)-6-((1-((1-methylcyclopropyl)sulfonyl)cyclopropyl)methyl)-7-oxo-4,5,6,7-tetrahydro-1H-pyrazolo[3,4-c]pyridine-3-carboxamide]	43
CC1(S(=O)(=O)C2(CN3CCc4c(C(=O)NCc5ccc(Cl)cc5)nn(CCOCCN)c4C3=O)CC2)CC1 [Example 223, 1-(2-(2-aminoethoxy)ethyl)-N-(4-chlorobenzyl)-6-((1-((1-methylcyclopropyl)sulfonyl)cyclopropyl)methyl)-7-oxo-4,5,6,7-tetrahydro-1H-pyrazolo[3,4-c]pyridine-3-carboxamide]	35
CCC(=O)Cn1nc(C(=O)NCc2ccc(C#N)cc2)c2c1C(=O)N(CC1(S(=O)(=O)C3CC3)CC1)CC2 [Example 227, N-(4-cyanobenzyl)-6-((1-(cyclopropylsulfonyl)cyclopropyl)methyl)-7-oxo-1-(2-oxobutyl)-4,5,6,7-tetrahydro-1H-pyrazolo[3,4-c]pyridine-3-carboxamide]	31
N#Cc1ccc(CNC(=O)c2nn(CC3(O)CC3)c3c2CCN(CC2(S(=O)(=O)C4CC4)CC2)C3=O)cc1 [Example 228, N-(4-Cyanobenzyl)-6-((1-(cyclopropylsulfonyl)cyclopropyl)methyl)-1-((1-hydroxycyclopropyl)methyl)-7-oxo-4,5,6,7-tetrahydro-1H-pyrazolo[3,4-c]pyridine-3-carboxamide]	56
CC(C)(O)Cn1nc(C(=O)NCc2ccc(Cl)cc2)c2c1C(=O)N(CC1(S(=O)(=O)C3CC3)CC1)CC2 [Example 229, N-(4-Chlorobenzyl)-6-((1-(cyclopropylsulfonyl)cyclopropyl)methyl)-1-(2-hydroxy-2-methylpropyl)-7-oxo-4,5,6,7-tetrahydro-1H-pyrazolo[3,4-c]pyridine-3-carboxamide]	31
CC(C)(O)Cn1nc(C(=O)NCc2ccc(C#N)cc2)c2c1C(=O)N(CC1(S(=O)(=O)C3CC3)CC1)CC2 [Example 230]	34
CC(C)(O)Cn1nc(C(=O)NCc2ccc(Cl)cc2)c2c1C(=O)N(CC1(S(C)(=O)=O)CC1)CC2 [Example 231]	278
CC(C)(O)Cn1nc(C(=O)NCc2ccc(C#N)cc2)c2c1C(=O)N(CC1(S(C)(=O)=O)CC1)CC2 [Example 232]	339
CCS(=O)(=O)C1(CN2CCc3c(C(=O)NCc4ccc(C#N)cc4)nn(CC(C)(C)O)c3C2=O)CC1 [Example 233]	150
CC(C)(O)Cn1nc(C(=O)NCc2ccc(C#N)cc2)c2c1C(=O)N(CC1(S(=O)(=O)C3(CO)CC3)CC1)CC2 [Example 234]	19
CC(C)(O)Cn1nc(C(=O)NCc2ccc(C#N)cc2)c2c1C(=O)N(CC1(S(=O)(=O)C(C)(C)CO)CC1)CC2 [Example 235]	16
N#Cc1ccc(CNC(=O)c2nn(CCCO)c3c2CCN(CC2(S(=O)(=O)C4CC4)CC2)C3=O)cc1 [Example 236, N-(4-Cyanobenzyl)-6-((1-(cyclopropylsulfonyl)cyclopropyl)methyl)-1-(3-hydroxypropyl)-7-oxo-4,5,6,7-tetrahydro-1H-pyrazolo[3,4-c]pyridine-3-carboxamide]	91
